Source: patent US7999099B2, “Modified 5′-phosphonate azidothymidine—potential anti-viral preparations” (priority 2004, dated 2011)
Where two headings read alike, the source gives them in different places.

Legend:
GKV-4046 HIV-1 = assay: Inhibition of HIV-1 replication in MT-4 cell culture (p24 accumulation, cell viability by MTT); format: cell-based, type 1 human immunodeficiency virus; details: MT-4 cells
Description: Inhibition of HIV replication was studied by cultivating pre-infected lymphoid cells of MT-4 cell line in the presence of the investigational compounds in the concentration of 0.001-100 µg per 1 ml of culture medium during one passage, i.e. 4 days.
Inhibition of HIV replication in a sensitive cell culture is assessed by the reduction of p24 virus-specific protein accumulation (according to immunoenzyme assay) as well as by the increase of cell viability in the presence of the drug as compared to the control on the 4th day of cultivation using bromide 3-(4,5-dimethylthiasol-2-yl)-2,5-diphenuyltetrasolium (MTT).
The effect of the investigational compounds of HIV-1 replication in MT-4 cell culture was studied using a known method.
The therapeutic index, or the index of selectivity (IS), is calculated as the ratio of 50% toxic concentration of a compound to its 50% effective dose (the results are presented in table 1).

[1] = Pharmacokinetics of generated AZT in dog blood after oral administration; format: in vivo
Description: A dog weighing 12 kg was orally given 250 mg of the investigational compound (mixed with curd). Blood samples (1 ml) were taken at defined intervals from the femoral vein. The samples were centrifuged (10 minutes at 2000 rpm) and the supernatant was separated. Oxetan (internal standard, 0.25 […]g) and methanol (0.75 ml) were added to aliquots of the supernatant (0.25 ml). The resulting mixture was centrifuged for 3 minutes at 5000 rpm. The supernatant was separated and evaporated in air flow at 40° C., water (1 ml) was added to the residue. Aliqutes (20[…]1) were analyzed by HPLC in Gynkotec chromatograph (Germany) using Ultrasphere ODC Beckman analytical column (USA). Eluent: 6% acetonitrile in 0.1% H3PO4 (pH 2.1) in the presence of 0.15% triethylamine; detection at […]max 265 nm at 30° C.

Compound: 5′-Aminocarbonylphosphonyl-3′-azido-3′-deoxythymidine [Ie]
- IS (index of selectivity, ratio of 50% toxic concentration to 50% effective dose) (GKV-4046 HIV-1): >3000

Compound: 5′-Chloromethylphosphonyl-3′-azido-3′-deoxythymidine [Ia]
- IS (index of selectivity, ratio of 50% toxic concentration to 50% effective dose) (GKV-4046 HIV-1): >3000

Compound: 5′-Hydroxymethylphosphonyl-3′-azido-3′-deoxythymidine [Ic]
- IS (index of selectivity, ratio of 50% toxic concentration to 50% effective dose) (GKV-4046 HIV-1): >1600

Compound: 5′-Iodomethylphosphonyl-3′-azido-3′-deoxythymidine [Ib]
- IS (index of selectivity, ratio of 50% toxic concentration to 50% effective dose) (GKV-4046 HIV-1): >100

Compound: 5′-Methoxymethylphosphonyl-3′-azido-3′-deoxythymidine
- IS (index of selectivity, ratio of 50% toxic concentration to 50% effective dose) (GKV-4046 HIV-1): >100

Compound: Cc1cn([C@H]2C[C@H](N=[N+]=[N-])[C@@H](CO)O2)c(=O)[nH]c1=O [AZT, 3′-azido-3′-deoxythymidine]
- half-life ([1]; in vivo, of azidothymidine, oral, amount equivalent to 250 mg of AZT): 5.2 h
- AUC ([1]; in vivo, of azidothymidine, oral, amount equivalent to 250 mg of AZT, read-out: AUC): 58800 ng·h/mL
- Cmax ([1]; in vivo, of azidothymidine, oral, amount equivalent to 250 mg of AZT, read-out: Cmax): 9770 ng/mL
- MRT ([1]; in vivo, of azidothymidine, oral, amount equivalent to 250 mg of AZT, read-out: MRT): 7.5 h
- Tmax ([1]; in vivo, of azidothymidine, oral, amount equivalent to 250 mg of AZT, read-out: Tmax): 2.5 h
- CL ([1]; of azidothymidine, oral, amount equivalent to 250 mg of AZT): 4.2 L/h

Compound: Cc1cn([C@H]2C[C@H](N=[N+]=[N-])[C@@H](CO[PH](=O)O)O2)c(=O)[nH]c1=O [Nikavir, 5′-hydrohenphosphonate of 3′-azido-2′,3′-dideoxythymidine]
- IS (index of selectivity, ratio of 50% toxic concentration to 50% effective dose) (GKV-4046 HIV-1): 2015
- AUC ([1]; in vivo, po, 250 mg): 16600 ng·h/mL
- CL ([1]; in vivo, po, 250 mg): 15.0 L/h
- Cmax ([1]; in vivo, po, 250 mg): 1890 ng/mL
- MRT ([1]; in vivo, po, 250 mg): 10.4 h
- T1/2 ([1]; in vivo, po, 250 mg): 7.2 h
- Tmax ([1]; in vivo, po, 250 mg): 4.0 h
